The source of these data is patent US8536201B2, “Pesticidal arylpyrrolidines” (Bayer Intellectual Property GmbH, priority 2009, dated 2013).

What is called mortality is the share of the test organisms that died.

Holding throughout (type): in vivo
Series [1] deals with Spodoptera litura. The series is described as follows: Tobacco cutworm (Spodoptera litura) larvae, sweet potato leaf dip test. The note with it: third instar larvae, treated sweet potato leaves, after 7 days. As for the experimental part: Unless not mentioned otherwise, the test solutions were prepared as follows:
Solvent: dimethyl formamide, 3 parts by weight
Emulsifier: polyoxyethylene alkyl phenyl ether, 1 part by weight
To prepare the test solution, 1 part by weight of an active compound is mixed with the above-mentioned amount of solvent containing the above-mentioned amount of emulsifier, and the mixture is diluted with water to the desired concentration.
BIOLOGICAL TEST EXAMPLE 1.1
Tobacco Cutworm (Spodoptera litura) Larvae
Leaves of sweet potato were immersed in the test solution at the appropriate concentration, and the leaves were dried in air. The leaves were then placed in a petri dish having a diameter of 9 cm, and ten Spodoptera litura at third instar larvae were released therein. The petri dishes were placed in a temperature-controlled chamber at 25° C. After 2 days and 4 days more sweet potato leaves were added. After 7 days, the number of dead larvae was counted to calculate the insecticidal activity. An insecticidal activity of 100% means that all larvae were killed, whereas an insecticidal activity of 0% means that no larva was killed. In the current test, the results of two petri dishes for each treatment were averaged.

The subject of series [2] is Spodoptera litura. The series is described as follows: Tobacco cutworm (Spodoptera litura) larvae using artificial diet. The conditions noted are these: 20 ppm, 3rd-instar larvae. On the procedure:
BIOLOGICAL TEST EXAMPLE 1.2
Tobacco Cutworm (Spodoptera litura) Larvae Using Artificial Diet
2.3 g of artificial diet powder is put into a PET cup (7.5 cm diameter, 4 cm depth). The powder was leveled to make a layer in the bottom of the cup. 5 ml of a chemical solution is poured onto the powder and spread uniformly. The cup with treated diet powder is placed quiet to let the diet jell. Into each testing cup five 3rd-instar larvae were released. The testing cup is closed with the lid and placed in a temperature-controlled room at 25° C. and 50-60% R.H., 16L8D lighting conditions.
The mortality in % was determined according to the following criteria:
1 larva dead: 20% Efficacy
5 larvae dead: 100% Efficacy

The subject of series [3] is Tetranychus urticae. The series is described as follows: Two-spotted spider mite Tetranychus urticae spray test on kidney bean. The note with it: adult mites, after 7 days. On the procedure:
BIOLOGICAL TEST EXAMPLE 2
Two-Spotted Spider Mite Tetranychus urticae
50 to 100 adult mites of Tetranychus urticae were inoculated to leaves of kidney bean at two-leaf stage planted in a pot of 6 cm in diameter. After one day, test solution at the appropriate concentration was sprayed thereon in a sufficient amount using a spray gun. After the spraying, the plant pot was placed inside a greenhouse, and after 7 days, the acaricidal activity was calculated. An acaricidal activity of 100% means that all mites were killed, an acaricidal activity of 0% means that no mite was killed.

The test system of series [4] is Aulacophora femoralis. In words: Cucurbit leaf beetle (Aulacophora femoralis) cucumber leaf dip test. The note with it: second instar larvae, treated cucumber leaves, after 7 days. On the procedure:
BIOLOGICAL TEST EXAMPLE 3
Cucurbit Leaf Beetle (Aulacophora femoralis)
Leaves of cucumber were immersed in the test solution at the appropriate concentration, and the leaves were dried in air. The leaves were then put in a plastic cup containing sterilized black soil and five Aulacophora femoralis at second instar larvae were released in the cup. The cups were placed in a temperature-controlled chamber at 25° C. After 7 days, the number of dead larvae was counted, and thus the insecticidal activity was calculated. An insecticidal activity of 100% means that all larvae were killed, whereas an insecticidal activity of 0% means that no larva was killed.

For series [5], the system named is Ctenocephalides felis. The series is described as follows: Ctenocephalides felis test (CTECFE), blood feeding. The note with it: for activity (mortality in %): 100 ppm in cattle blood, adult unfed fleas, after 2 days. As for the experimental part:
BIOLOGICAL TEST EXAMPLE 7
Ctenocephalides felis—Test (CTECFE)
(§1) Solvent: Dimethyl Sulfoxide
To produce a suitable preparation of active compound, 10 mg of active compound are dissolved in 0.5 ml solvent, and the concentrate is diluted with cattle blood to the desired concentration. Approximately 20 adult unfed (Ctenocephalides felis) are placed in flea chambers. The blood chamber, sealed with parafilm on the bottom, are filled with cattle blood supplied with compound solution and placed on top of the flea chamber, so that the fleas are able to suck the blood. The blood chamber is heated to 37° C. whereas the flea chamber is kept at room temperature.
After 2 days mortality in % is determined. 100% means that all the fleas have been killed; 0% means that none of the fleas have been killed.

Series [6] has as its system Musca domestica. The series is described as follows: Musca domestica test. The note with it: for activity (mortality in %): 100 ppm, adults, sugar/compound sponge, after 2 days. On the procedure:
BIOLOGICAL TEST EXAMPLE 9
as §1
To produce a suitable preparation of active compound, 10 mg of active compound are dissolved in 0.5 ml solvent, and the concentrate is diluted with water to the desired concentration. Prior to the assay, a piece of kitchen sponge is soaked with a mixture of sugar and compound solution and placed into a container. 10 adults (Musca domestica) are placed into the container and closed with a perforated lid.
After 2 days mortality in % is determined. 100% means that all the flies have been killed; 0% means that none of the flies have been killed.

Series [7] deals with Boophilus microplus. The series is described as follows: Boophilus microplus (dip). On the procedure:
BIOLOGICAL TEST EXAMPLE 5
Boophilus microplus (Dip)
as §1
To produce a suitable preparation of active compound, 10 mg of active compound are dissolved in 0.5 ml solvent, and the concentrate is diluted with water to the desired concentration. Eight to ten adult engorged female Boophilus microplus ticks are placed in perforated plastic beakers and immersed in aqueous compound solution for one minute. Ticks are transferred to a filter paper in a plastic tray. Egg deposition of fertile eggs is monitored after. After 7 days mortality in % is determined. 100% means that all the ticks have been killed; 0% means that none of the ticks have been killed.

In series [8] the test system is Lucilia cuprina. The series is described as follows: Lucilia cuprina (48 hrs) larval test. The note with it: read-out: activity (larval mortality in %). On the procedure: BIOLOGICAL TEST EXAMPLE 8
Species: Lucilia cuprina 1st Instar Larvae (Age 24 Hrs)
as §1
10 mg active compound are dissolved in 0.5 ml dimethyl sulfoxide. Serial dilutions are made to obtain the desired rates. Approximately 20 Lucilia cuprina 1st instar larvae are transferred into a test tube containing 1 cm^3 of minced horse meat and 0.5 ml aqueous dilution of test compound.
After 2 days larval mortality in % is recorded. 100% efficacy=all larvae are killed, […].

Regarding `CCC(=O)NC(C)c1ccc(N2CCC(c3cc(Cl)cc(Cl)c3)(C(F)(F)F)C2)cc1` (racemic) [Compound 2], the insecticidal activity in series [1] (20 ppm), in series [2], in series [3] (100 ppm) and in series [4] (20 ppm) was 100% in each case. The “activity (mortality in %)” value in series [5] came out at 95%.

Turning to `CC(=O)N[C@@H](C)c1ccc(N2CCC(c3cc(C(F)(F)F)cc(C(F)(F)F)c3)(C(F)(F)F)C2)cc1` (some centres unmarked) [Compound 9-b], the insecticidal activity in series [1] (20 ppm), in series [2] and in series [4] (20 ppm) was 100% in each case. The “activity (mortality in %)” value in series [6] stood at 90%.

Regarding `COCCC(=O)N[C@@H](C)c1ccc(N2CCC(c3cc(C(F)(F)F)cc(C(F)(F)F)c3)(C(F)(F)F)C2)cc1` (some centres unmarked) [Compound 15-b], the insecticidal activity in series [2], in series [3] (20 ppm) and in series [4] (100 ppm) was 100% each time. In addition, the “activity (mortality in %)” value in series [7] (100 ppm, adult engorged females immersed one minute, after 7 days) was 80%.

For the compound `CC(NC(=O)C1CC1)c1ccc(N2CCC(c3cc(Cl)cc(Cl)c3)(C(F)(F)F)C2)cc1` (racemic) [Compound 3], the insecticidal activity in series [1] (20 ppm), in series [2], in series [3] (20 ppm) and in series [4] (20 ppm) was 100% throughout. In series [6], the “activity (mortality in %)” value came to 90%.

Turning to `C[C@H](NC(=O)C1CC1)c1ccc(N2CCC(c3cc(Cl)c(Cl)c(Cl)c3)(C(F)(F)F)C2)cc1` (some centres unmarked) [Compound 8-b], the insecticidal activity in series [1] (20 ppm), in series [2], in series [3] (20 ppm) and in series [4] (20 ppm) was 100% throughout. Further, the “activity (mortality in %)” value in series [5] worked out at 95%.

For `CC(NC(=O)C1CC1)c1ccc(N2CCC(c3cc(Cl)c(Cl)c(Cl)c3)(C(F)(F)F)C2)cc1` (racemic) [Compound 8], the insecticidal activity in series [1] (20 ppm), in series [2], in series [3] (20 ppm) and in series [4] (20 ppm) was 100% in each case. The “activity (mortality in %)” value in series [6] turned out to be 90%.

In the case of `C[C@H](NC(=O)C1CC1)c1ccc(N2CCC(c3cc(C(F)(F)F)cc(C(F)(F)F)c3)(C(F)(F)F)C2)cc1` (stereo partly drawn) [Compound 11-b, N-[(1S)-1-(4-{3-[3,5-bis(trifluoromethyl)phenyl]-3-(trifluoromethyl)pyrrolidin-1-yl}phenyl)ethyl]cyclopropanecarboxamide], the insecticidal activity in series [1] (0.8 ppm), in series [1] (20 ppm), in series [3] (4 ppm), in series [3] (20 ppm), in series [4] (4 ppm) and in series [4] (20 ppm) was 100% each time. Also, the mortality at 100 ppm in series [7] (Rhipicephalus microplus, 168 h, read-out: activity (mortality in %)) came out at 100%; in series [5] (Ctenocephalides felis, in Bos taurus, 48 h, read-out: activity (mortality in %)), 100%; in series [8], 100%; in series [6] (Musca domestica, 48 h, read-out: activity (mortality in %)) it was 100%.

In the case of `CCC(=O)NC(C)c1ccc(N2CCC(c3cc(C(F)(F)F)cc(C(F)(F)F)c3)(C(F)(F)F)C2)cc1` (racemic) [Compound 10], the insecticidal activity in series [1] (20 ppm), in series [2], in series [3] (20 ppm) and in series [4] (20 ppm) was 100% each time. Moreover, the “activity (mortality in %)” value in series [6] amounted to 90%.

`COCCC(=O)NC(C)c1ccc(N2CCC(c3cc(Cl)c(Cl)c(Cl)c3)(C(F)(F)F)C2)cc1` (racemic) [Compound 14]: the insecticidal activity in series [2], in series [3] (20 ppm) and in series [4] (100 ppm) was 100% throughout. Also, in series [5], the “activity (mortality in %)” value turned out to be 90%.
